Assay results as given in ChEMBL document CHEMBL1137850, “Pyridoxine as a template for the design of antiplatelet agents” (2004).
“And” between values parts separate entries of the source, which are not always exact repeats. Identical values can stand only once.

Tests used:
[1] = Percent reduction of ADP (4 uM) induced platelet aggregation was determined at 0.5 mM concentration; assay type: functional, Homo sapiens
[2] = Percent reduction of collagen (1 ug/mL) induced platelet aggregation was determined at 0.5 mM concentration; assay type: functional, Homo sapiens
[3] = Percent reduction of collagen (5 ug/mL) induced platelet aggregation was determined at 0.5 mM concentration; assay type: functional, Homo sapiens
[4] = Percent reduction of thrombin receptor activating peptide (12 uM) induced platelet aggregation was determined at 0.5 mM concentration; assay type: functional, Homo sapiens
Rattus norvegicus [5] = assay: Percent reduction in infarct volume after treatment at 0.0 mg/kg dose; assay type: functional
Rattus norvegicus [6] = assay: Percent reduction in infarct volume after treatment at 10.0 mg/kg dose; assay type: functional
Rattus norvegicus [7] = assay: Percent reduction in infarct volume after treatment at 40.0 mg/kg dose; assay type: functional
Rattus norvegicus [8] = assay: Percent reduction in infarct size after bolus injection at 0.07 mol/kg dose; assay type: functional
[9] = Percent reduction of ADP (4 uM) induced platelet aggregation was determined at 0.25 mM concentration; assay type: functional, Homo sapiens
[10] = Percent reduction of collagen (1 ug/mL) induced platelet aggregation was determined at 0.25 mM concentration; assay type: functional, Homo sapiens
[11] = Percent reduction of collagen (5 ug/mL) induced platelet aggregation was determined at 0.25 mM concentration; assay type: functional, Homo sapiens
[12] = Percent reduction of thrombin receptor activating peptide (12 uM) induced platelet aggregation was determined at 0.25 mM concentration; assay type: functional, Homo sapiens
Rattus norvegicus [13] = assay: Percent reduction in infarct volume after treatment at 20.0 mg/kg dose; assay type: functional
Rattus norvegicus [14] = assay: Percent reduction in infarct size after bolus injection at 0.1 mol/kg dose; assay type: functional

SMILES	Reduction [1]	Reduction [2]	Reduction [3]	Reduction [4]	Reduction (Rattus norvegicus [5])	Reduction (Rattus norvegicus [6])	Reduction (Rattus norvegicus [7])	Reduction (Rattus norvegicus [8])	Reduction [9]	Reduction [10]	Reduction [11]	Reduction [12]	Reduction (Rattus norvegicus [13])	Reduction (Rattus norvegicus [14])
Cc1ncc(C/N=C(\S)Nc2ccc(F)cc2)c(CO)c1O	18%	23%	4%	6%	–	–	–	–	–	–	–	–	–	–
Cc1ncc(CNc2ccc(C(=N)N)cc2)c(CO)c1O	79%	10%	24%	88%	–	–	–	–	–	–	–	–	–	–
Cc1ncc(Cn2cnnn2)c(CO)c1O	4%	6%	0%	7%	–	–	–	–	–	–	–	–	–	–
Cc1ncc(Cn2nnc(N)n2)c(CO)c1O	0%	1%	0%	2%	–	–	–	–	–	–	–	–	–	–
Cc1ncc(CNC(=O)Nc2ccc(F)cc2)c(CO)c1O	0%	0%	1%	0%	–	–	–	–	–	–	–	–	–	–
Cc1ncc(CNc2ccc(-c3ccc(C(=N)N)cc3)cc2)c(CO)c1O	82% and 66%	93%	30%	–	40%	30.5%	2.9%	30%	63%	41%	1%	93%	26.5%	–
Cc1ncc(COP(=O)(O)O)c(C=O)c1O [PYRIDOXAL PHOSPHATE ANHYDROUS]	0%	0%	0%	0%	–	–	–	–	–	–	–	–	–	31%
Cc1ncc(Cn2ccnc2C)c(CO)c1O	1%	0%	1%	3%	–	–	–	–	–	–	–	–	–	–
Cc1ncc(CO)c(CO)c1O [PYRIDOXINE]	0%	4%	4%	0%	–	–	–	–	–	–	–	–	–	–
